≈ marks a conversion by molar mass, not a printed value. Structures can show the parent of a compound that is named as a salt.

The source of these data is patent US10253024B2, “Polycyclic indoline and indolenine compounds” (The Regents of the University of Colorado, a body corporate, priority 2015, dated 2019).

One data set has as its system MRSA BAA-44. Nature of the data set: MIC of antibiotics in absence and presence of 11b (broth microdilution). It counts as cell-based, S. aureus. The conditions noted are these: for Fold of potentiation: MIC alone versus with 10 μM 11b; for MIC: Staphylococcus aureus, antibiotic alone; for MIC (+11b): in the presence of 10 μM 11b. An excerpt: The MICs of a variety of antibiotics in the presence and absence of 11b, respectively. In addition to methicillin, BAA-44 is also resistant to a wide range of antibiotics, such as tetracycline, erythromycin, and daptomycin. As shown in Table 2-3, compound 11b potentiates the activity of all β-lactams tested, such as oxacillin, amox/clav, cefazolin, and meropenem. Without being bound by any theory, it is believed compound 11b and other compounds of the invention are selective potentiators of β-lactams.
(§1) The minimal inhibitory concentrations (MICS) of antimicrobial compounds and 11b were determined by the broth microdilution method detailed in the Clinical and Laboratory Standards Institute (CLSI) handbook. All antimicrobial compounds were purchased from Sigma-Aldrich. The growth media used for all MIC experiments was Mueller Hinton Broth (MHB) purchased from HIMEDIA through VWR (cat: 95039-356). The inoculum was prepared by diluting a bacterial day culture (OD600 0.15-0.4) to OD600 0.002. This dilution was further diluted two fold when added to 96 well microplates (USA Scientific CytoOne 96-well TC plate, cat: CC7682-7596) for a final inoculum concentration of OD600 0.001. All plates were incubated at 37° C. with shaking for 18 hours before results were interpreted.
The MRSA strain ATCC BAA-44 was used to determine the MIC values of various antimicrobial compounds in the presence of 10 μM 11b. The experiment was conducted similarly to the CLSI MIC determination described previously; however, MHB was supplemented with 20 μM 11b prior to set up and inoculation. The final concentration of 11b after inoculation with BAA-44 was 10 μM.
A general note: Dilution methods test growth across graded concentrations, often in twofold steps.

In data set [1] the test system is multi-drug resistant MRSA strain, ATCC BAA-44. Nature of the data set: Minimum re-sensitizing concentration (MRC) for cefazolin. The conditions noted are these: MRSA ATCC BAA-44; re-sensitizing to cefazolin. It counts as cell-based, S. aureus. As for the experimental part:
(§2) ATIs 11-14 represent a wide range of clogD values and their minimum re-sensitizing concentrations (MRCS) for cefazolin (i.e., a first-generation cephalosporin) and amoxicillin/clavulanic acid (i.e., Augmentin, amox/clav) was evaluated as well as their minimum inhibitory concentrations (MICs) in a multi-drug resistant MRSA strain, ATCC BAA-44. Any compounds with promising MRC and MIC were then evaluated for potential mammalian toxicity by determining their half growth inhibitory concentrations (GI50) in human cervical adenocarcinoma (HeLa) cells.
(§3) Antibiotic MIC values where S. aureus is considered susceptible were determined from the CLSI handbook. MHB was supplemented with the antimicrobial at a concentration two fold greater than the CLSI susceptible MIC value. Two-fold serial dilutions of 11b were prepared in antibiotic supplemented media in 96-well microplates. These were inoculated with MRSA diluted to OD600 0.002 and incubated at 37° C. with shaking for 18 hours before results were interpreted. The concentration of 11b in antibiotic supplemented media at which there was no observable growth was considered the minimum resensitizing concentration (MRC). For amoxicillin/clavulanic acid, the initial concentration was 8/4 μg/mL; for cefazolin, 16 μg/mL. A 50 μL portion of the antibiotic containing media was added to each well of 96-well plates, and 100 μL was added to the top row. A 1.28 μL portion of 5 mg/mL 11b was added to the top row of each plate to afford a concentration of 64 μg/mL in the top row of each plate, and 2-fold serial dilutions were performed down the columns. Once the plates were prepared, a day culture of MRSA was diluted to OD600 0.002, and 50 μL was added to each well. The final concentration of MRSA added was OD600 0.001, the final concentration of amoxicillin/clavulanic acid was 4/2 μg/mL, the final concentration of cefazolin was 8 μg/mL, and the highest concentration of 11b tested was 32 μg/mL. Plates were incubated overnight at 37° C. with shaking. The MRC value was determined as the concentration of 11b in the presence of antibiotic at which there was no observable overnight growth.

Data set [2] shares this test system. Nature of the data set: Minimum inhibitory concentration (MIC) of the compound alone. It counts as cell-based, S. aureus. The conditions noted are these: for MIC: Staphylococcus aureus, MRSA ATCC BAA-44, compound alone; for antibacterial activity on its own (in words): MRSA BAA-44. The procedure:
as §2, §1

The test system is the same in data set [3]. Nature of the data set: Minimum re-sensitizing concentration (MRC) for amoxicillin/clavulanic acid. It counts as cell-based, S. aureus. The conditions noted are these: MRSA ATCC BAA-44; re-sensitizing to amoxicillin/clavulanic acid. The procedure:
as §2, §3

A short description of data set [4]: In vivo pharmacokinetics and tolerability, single IP dose. To be noted: mouse. As for the experimental part:
(§4) The physiochemical properties of various compounds were evaluated. […] In vivo pharmacokinetic (PK) properties of 13 was evaluated.
(§5) To test this, permeability assessments were performed using MDCK cells.

In data set [5] the test system is MRSA strains NRS-100 and NRS-384, VRSA strain NR-46414. Nature of the data set: MRC of 13 in further MRSA/VRSA strains. The conditions noted are these: community-acquired MRSA NRS-100, NRS-384 and VRSA NR-46414. It counts as cell-based, S. aureus. The procedure: Compound 14 is zwitterionic under physiological conditions and has even lower clogD value. Further evaluations of 13 in a variety of MRSA strains, such as community-acquired MRSA strains NRS-100 and NRS-384, and vancomycin-resistant S. aureus (VRSA) strain NR-46414, also gave a similar results (MRCs=2 μg mL^−1).
Antibiotic MIC values where S. aureus is considered susceptible were determined from the CLSI handbook. MHB was supplemented with the antimicrobial at a concentration two fold greater than the CLSI susceptible MIC value. Two-fold serial dilutions of 11b were prepared in antibiotic supplemented media in 96-well microplates. These were inoculated with MRSA diluted to OD600 0.002 and incubated at 37° C. with shaking for 18 hours before results were interpreted. The concentration of 11b in antibiotic supplemented media at which there was no observable growth was considered the minimum resensitizing concentration (MRC). For amoxicillin/clavulanic acid, the initial concentration was 8/4 μg/mL; for cefazolin, 16 μg/mL. A 50 μL portion of the antibiotic containing media was added to each well of 96-well plates, and 100 μL was added to the top row. […] The MRC value was determined as the concentration of 11b in the presence of antibiotic at which there was no observable overnight growth.

A short description of data set [6]: Half growth inhibitory concentration (GI50), mammalian toxicity. It counts as cell-based. To be noted: human, HeLa cells (human cervical adenocarcinoma). The procedure: as §2
To evaluate the cytotoxicity of 11b in mammalian cells, a cell viability assay was carried out using CellTiter-Glo luminescent cell viability assay kit (Promega). Human cervical adenocarcinoma HeLa cells were seeded on white, cell-culture treated 96-well plates (Corning: 3917) with Dulbecco's modified Eagle's medium (DMEM) supplemented with 10% fetal calf serum (FCS), 1% penicillin/streptomycin, at the densities of 20,000 cells/well. The medium volume for each well was 100 μL. Cells were incubated at 37° C. in 5% CO2/95% air for 16 hours. The medium was removed from each well and replaced with 99 μL of warmed fresh medium. To each well was then added 1.0 μL of 11b in DMSO with the final concentrations of 1.56-200 μg/mL. Each concentrate was performed in two replicates. After incubation at 37° C. for another 24 hours, the plates were equilibrated to room temperature for 30 minutes. 100 μL of CellTiter-Glo reagent (Promega) was added to each well and mixed for 2 minutes on an orbital shaker. The plate was incubated at room temperature for another 10 minutes to stabilize luminescent signal. The luminescence of each sample was recorded in an Envision Multilabel Plate Reader (Perkin Elmer).

The nature of data set [7]: Saturated concentration (aqueous solubility). It counts as physicochemical. The procedure: as §4
A further data set is described as follows: in vitro. To be noted: dog, MDCK. As for the experimental part: as §5

Broadly, the MIC is the lowest concentration that inhibits growth of the organism. For `Cc1nnc(SCC2=C(C(=O)O)N3C(=O)[C@@H](NC(=O)Cn4cnnn4)[C@H]3SC2)s1` [Cefazolin], in the data set with MRSA BAA-44, the Fold of potentiation turned out to be 32, the MIC worked out at 128 µg/mL and the “MIC (+11b)” value stood at 4 µg/mL.
Take `C=C1CN(CC(=O)O)C[C@@H]2Nc3c(F)cc(Br)cc3[C@]12CCNS(=O)(=O)c1ccc(Cl)cc1` [Gly-ATI 14, 2-((4aS,9aR)-6-bromo-4a-(2-((4-chlorophenyl)sulfonamido)ethyl)-8-fluoro-4-methylene-1,3,4,4a,9,9a-hexahydro-2H-pyrido[3,4-b]indol-2-yl)acetic acid]: the “MRC Cef” value in [1] is more than 32 µg/mL. This molecule yielded an MIC in data set [2] of more than 32 µg/mL. Further, in data set [3], the “MRC Amox/clav” value was more than 32 µg/mL.
What is called AUC is concentration integrated over time. Read a high AUC as more exposure. By Cmax is commonly meant the highest concentration seen after dosing. Broadly, the half-life is how long it takes for the measured level to halve. A high value points to slow decline. In general, GI50 refers to the concentration that inhibits growth by half. Higher therefore signals lower sensitivity of the cells. The term Papp denotes a coefficient for how fast a substance crosses the barrier. On to `C=C1CN(C(=N)N)C[C@@H]2Nc3c(F)cc(Br)cc3[C@]12CCNS(=O)(=O)c1ccc(Cl)cc1` [Guan-ATI 13, (4aS,9aR)-6-bromo-4a-(2-((4-chlorophenyl)sulfonamido)ethyl)-8-fluoro-4-methylene-1,3,4,4a,9,9a-hexahydro-2H-pyrido[3,4-b]indole-2-carboximidamide], for which, in [4] (in vivo, 30 min), the “plasma levels as multiple of MRC in MRSA” value is on record as “approximately 4 ×MRC”. In data set [4] (plasma, 30 mg/kg), this molecule had an AUC of 18200 ng·h/mL, a Cmax of 8000 ng/mL and a half-life of 2.5 h. This molecule had an MRCs in [5] of 2 µg/mL. The same molecule registered a GI50 at 24 h in [6] of 40 µg/mL (≈ 73.7 µM). Besides, in data set [7], the saturated concentration is 587 µg/mL and the “saturated concentration as fold of MRC in MRSA” value is approximately 300 fold. This molecule also showed a Papp in “in vitro” of 2.11 ×10⁻⁶ cm/s. Moreover, the “MRC Cef” value in data set [1] is 2 µg/mL. For the same molecule, the minimum inhibitory concentration (MIC) in [2] worked out at 8 µg/mL (≈ 14.7 µM). The “MRC Amox/clav” value in [3] is 2 µg/mL.
In the case of `C[C@@H](O)[C@H]1C(=O)N2C(C(=O)O)=C(S[C@@H]3CN[C@H](C(=O)N(C)C)C3)[C@H](C)[C@H]12` [Meropenem], in the data set on MRSA BAA-44, the Fold of potentiation is given as 4, the MIC was 4 µg/mL and the “MIC (+11b)” value was 1 µg/mL.
Turning to `COc1cccc(OC)c1C(=O)N[C@@H]1C(=O)N2[C@@H]1SC(C)(C)[C@@H]2C(=O)O` [Methicillin], in the data set with MRSA BAA-44, the Fold of potentiation was determined as 16, the MIC was 128 µg/mL and the “MIC (+11b)” value is 8 µg/mL.
Regarding `C=C1CN(S(C)(=O)=O)C[C@@H]2Nc3c(F)cc(Br)cc3[C@]12CCNS(=O)(=O)c1ccc(Cl)cc1` [Ms-ATI 11b, N-(2-((4aS,9aR)-6-bromo-8-fluoro-4-methylene-2-(methylsulfonyl)-1,2,3,4,9,9a-hexahydro-4aH-pyrido[3,4-b]indol-4a-yl)ethyl)-4-chlorobenzenesulfonamide], the “MRC Cef” value in data set [1] is more than 32 µg/mL. Besides, the MIC in [2] is more than 32 µg/mL. Moreover, the “MRC Amox/clav” value in data set [3] was more than 32 µg/mL.
In the case of `C=C1CNC[C@@H]2Nc3c(F)cc(Br)cc3[C@]12CCNS(=O)(=O)c1ccc(Cl)cc1` [NH-ATI 12, N-(2-((4aS,9aR)-6-bromo-8-fluoro-4-methylene-1,2,3,4,9,9a-hexahydro-4aH-pyrido[3,4-b]indol-4a-yl)ethyl)-4-chlorobenzenesulfonamide], in [6], the GI50 at 24 h is 6.7 µg/mL (≈ 13.4 µM). Also, the “MRC Cef” value in [1] worked out at 4 µg/mL. In [2], the “antibacterial activity on its own (in words)” value was “potent antibacterial activity on its own” and the lowest concentration to inhibit growth (MIC) was 8 µg/mL (≈ 16 µM). For the same molecule, the “MRC Amox/clav” value in data set [3] was found to be 4 µg/mL.
Consider `C=C1CN(S(=O)(=O)c2ccc([N+](=O)[O-])cc2)C[C@@H]2Nc3c(F)cc(Br)cc3[C@]12CCNS(=O)(=O)c1ccc(Cl)cc1` [Ns-ATI 11a, N-(2-((4aS,9aR)-6-bromo-8-fluoro-4-methylene-2-((4-nitrophenyl)sulfonyl)-1,2,3,4,9,9a-hexahydro-4aH-pyrido[3,4-b]indol-4a-yl)ethyl)-4-chlorobenzenesulfonamide], for which, in data set [1], the “MRC Cef” value is more than 32 µg/mL. This molecule also came in with an MIC in data set [2] of more than 32 µg/mL. Moreover, the “MRC Amox/clav” value in data set [3] was more than 32 µg/mL.
On to `Cc1onc(-c2ccccc2)c1C(=O)N[C@@H]1C(=O)N2[C@@H]1SC(C)(C)[C@@H]2C(=O)O` [Oxacillin], for which, in the data set with MRSA BAA-44, the Fold of potentiation is 32, the MIC was 32 µg/mL and the “MIC (+11b)” value was determined as 1 µg/mL.
`C=C1CN(C(=O)C(F)(F)F)C[C@@H]2Nc3c(F)cc(Br)cc3[C@]12CCNS(=O)(=O)c1ccc(Cl)cc1` [TFA-ATI 11c, N-(2-((4aS,9aR)-6-bromo-8-fluoro-4-methylene-2-(2,2,2-trifluoroacetyl)-1,2,3,4,9,9a-hexahydro-4aH-pyrido[3,4-b]indol-4a-yl)ethyl)-4-chlorobenzenesulfonamide] registered a GI50 at 24 h in data set [6] of 19 µg/mL. Further, the “MRC Cef” value in data set [1] was determined as 4 µg/mL. Moreover, in data set [2], the “antibacterial activity on its own (in words)” value is “without observable antibacterial activity” and the MIC was more than 32 µg/mL. Further, the “MRC Amox/clav” value in data set [3] is 4 µg/mL.
In turn, `OC[C@@H](O)[C@@H](O)[C@H](O)[C@H](O)CO` [mannitol] showed a Papp in “in vitro” of 1.51 ×10⁻⁶ cm/s.
In turn, `COCCc1ccc(OCC(O)CNC(C)C)cc1` (stereo not drawn) [metoprolol] registered a Papp in “in vitro” of 53.5 ×10⁻⁶ cm/s.
